Assay results reported in patent US20100120716.

Details: from C=CCCCCCC[C@@H](NC(=O)C1CC(OC(=O)N2Cc3ccccc3C2)CN1C(=O)N(C)CC=C)B1O[C@@H]2C[C@@H]3C[C@@H](C3(C)C)[C@]2(C)O1; rcm bond; Grubbs 2nd generation catalyst; toluene; 6.5 mM; 65.0 °C

CN1CC=CCCCCCC[C@H](B2O[C@@H]3C[C@@H]4C[C@@H](C4(C)C)[C@]3(C)O2)NC(=O)C2CC(OC(=O)N3Cc4ccccc4C3)CN2C1=O (stereo partly shown)
ring closure, yield of all isomers: 40%
